Assay results published in patent publication EP4563620A1, “THREE-ARM POLYETHYLENE GLYCOL DERIVATIVE CONTAINING AMINO ACID RESIDUES” (Xiamen Sinopeg Biotech Co., Ltd., priority 2022, dated 2024).

What was measured:
[1] = test system: H22 mouse liver cancer cells; experiment: Anti-tumor efficacy in vivo (transplanted solid tumor, tumor weight); settings: H22 subcutaneous tumor in mice, tail vein injection on days 2 and 7 post-inoculation, tumors weighed after 2 weeks of administration
Procedure: The transplantation of animal tumors was adopted as the experimental method, with 6 mice per group, and H22 mouse liver cancer cells were inoculated subcutaneously into the right axilla of the mice to form solid tumors. Single-dose administrations via tail vein injection were performed on days 2 and 7 post-inoculation, respectively. After 2 weeks of administration, the mice were sacrificed via cervical dislocation, and the tumors were excised and weighed. Tumor Inhibition Rate = [G-H/G]*100% (G represents the average tumor weight of the blank control group, H represents the average tumor weight of the treatment group). Table 4. Results of Anti-tumor Effect

[2] = test system: human ovarian cancer cell A2780; experiment: Cytotoxicity assay, MTT staining; type: cell-based; settings: A2780, 10 nM, 48 h
Procedure: (§1) Cytotoxicity assay of PEGylated irinotecan E10-1 (wherein the polyethylene glycol component is derived from E4-1) was performed using MTT staining. A blank control group containing no drugs but only culture medium, a positive control group containing irinotecan, and an experimental group containing PEGylated irinotecan (E10-1) were respectively set up. The drug concentration of the positive control group and experimental group was 10 nM, with 6 replicate wells each, and the assay was repeated three times. Six types of cancer cells were selected as in vitro cancer cell models: human colon cancer cell COLO205, human colon adenocarcinoma cell HT29, human lung adenocarcinoma cell A549, pancreatic cancer cell MiaPaCa-2, human ovarian cancer cell A2780, and human ovarian adenocarcinoma cell OVCAR-3.
(§2) Cells were inoculated onto a 96-well plate at a density of 1×10^4 cells/well, with 100 µL of cell suspension added to each well. After the inoculation, the cells were incubated in a cell culture incubator at 37°C, 4% CO2 for 24 h. The old culture medium was aspirated, and then 100 µL of culture medium containing 10 nM E10-1 was added to each experimental group, 100 µL of culture medium containing 10 nM irinotecan was added to each positive control group, and 100 µL of fresh culture medium was added to the blank control group. After further incubation for 48 h, 20 µL of 5 mg/mL MTT in PBS buffer was added to each well. After incubating the cancer cells with MTT for 4 h, the mixture of culture medium and MTT buffer was aspirated, and then DMSO (150 µL/well) was added to dissolve the blue-purple crystalline product of formazan in viable cells. The 96-well plate was gently shaken until the crystalline product was fully dissolved, and then a microplate reader was used to measure the absorbance at 490 nm. [formula]

[3] = test system: human lung adenocarcinoma cell A549; experiment: Cytotoxicity assay, MTT staining; type: cell-based; settings: A549, 10 nM, 48 h
Procedure: as §1, §2

[4] = test system: human ovarian adenocarcinoma cell OVCAR-3; experiment: Cytotoxicity assay, MTT staining; type: cell-based; settings: OVCAR-3, 10 nM, 48 h
Procedure: as §1, §2

[5] = test system: pancreatic cancer cell MiaPaCa-2; experiment: Cytotoxicity assay, MTT staining; type: cell-based; settings: Homo sapiens, MIA PaCa-2, MiaPaCa-2, 10 nM, 48 h
Procedure: as §1, §2

[6] = test system: human colon cancer cell COLO205; experiment: Cytotoxicity assay, MTT staining; type: cell-based; settings: COLO 205, COLO205, 10 nM, 48 h
Procedure: as §1, §2

[7] = test system: human colon adenocarcinoma cell HT29; experiment: Cytotoxicity assay, MTT staining; type: cell-based; settings: HT-29, HT29, 10 nM, 48 h
Procedure: as §1, §2

## CCc1c2c(nc3ccc(OC(=O)N4CCC(N5CCCCC5)CC4)cc13)-c1cc3c(c(=O)n1C2)COC(=O)[C@]3(O)CC [irinotecan]
[1]
  Tumor Inhibition Rate: 30.3%
[2]
  viability at 0.01 µM: 73%
[3]
  viability at 0.01 µM: 70%
[4]
  viability at 0.01 µM: 75%
[5]
  viability at 0.01 µM: 76%
[6]
  viability at 0.01 µM: 76%
[7]
  viability at 0.01 µM: 74%
